Tests used:
Test in all cases: biochemical
Design in all cases: KINOMEscan competition binding, DNA-tagged kinase against immobilised ligand, qPCR read-out
Conditions in all cases: read-out: Percent Control
[1] = target: PRKAA1 (Homo sapiens, UniProt Q13131)
[2] = target: AURKC (Homo sapiens, UniProt Q9UQB9)
[3] = target: IRAK1 (Homo sapiens, UniProt P51617)
[4] = target: MAPK8 (Homo sapiens, UniProt P45983)
[5] = target: SGK3 (Homo sapiens, UniProt Q96BR1)
[6] = target: MYLK4 (Homo sapiens, UniProt Q86YV6)
[7] = target: CHEK1 (Homo sapiens, UniProt O14757)
[8] = target: RIPK4 (Homo sapiens, UniProt P57078)
[9] = target: CAMK2G (Homo sapiens, UniProt Q13555)
[10] = target: STK11 (Homo sapiens, UniProt Q15831)
[11] = target: MATK (Homo sapiens, UniProt P42679)
[12] = target: VRK2 (Homo sapiens, UniProt Q86Y07)
[13] = target: T1, RSK4(Kin.Dom.1-N-terminal) (Homo sapiens, UniProt Q9UK32)
T1 construct: gene RPS6KA6; Kin.Dom.1 N-terminal

[14] = target: HIPK1 (Homo sapiens, UniProt Q86Z02)
[15] = target: CSF1R (Homo sapiens, UniProt P07333)
[16] = target: STK38L (Homo sapiens, UniProt Q9Y2H1)
[17] = target: DMPK (Homo sapiens, UniProt Q09013)
[18] = target: STK17B (Homo sapiens, UniProt O94768)
[19] = target: NLK (Homo sapiens, UniProt Q9UBE8)
[20] = target: ULK3 (Homo sapiens, UniProt Q6PHR2)

Chain of VRK2 (Q86Y07 whole entry): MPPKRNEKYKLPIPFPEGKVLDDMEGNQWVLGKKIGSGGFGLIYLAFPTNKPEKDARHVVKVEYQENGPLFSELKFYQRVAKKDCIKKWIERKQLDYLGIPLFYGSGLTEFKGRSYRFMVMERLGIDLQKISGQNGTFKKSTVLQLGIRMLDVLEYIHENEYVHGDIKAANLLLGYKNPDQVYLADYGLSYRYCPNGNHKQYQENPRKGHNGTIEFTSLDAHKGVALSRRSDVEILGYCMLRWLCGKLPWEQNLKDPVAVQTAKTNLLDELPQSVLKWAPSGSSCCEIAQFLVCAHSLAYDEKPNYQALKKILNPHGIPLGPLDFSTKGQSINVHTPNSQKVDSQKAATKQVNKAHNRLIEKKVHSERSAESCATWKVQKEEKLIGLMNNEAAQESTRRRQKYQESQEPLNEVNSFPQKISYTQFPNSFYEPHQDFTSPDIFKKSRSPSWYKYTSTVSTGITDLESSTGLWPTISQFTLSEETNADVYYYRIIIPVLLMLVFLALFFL
Chain of CSF1R (P07333 whole entry): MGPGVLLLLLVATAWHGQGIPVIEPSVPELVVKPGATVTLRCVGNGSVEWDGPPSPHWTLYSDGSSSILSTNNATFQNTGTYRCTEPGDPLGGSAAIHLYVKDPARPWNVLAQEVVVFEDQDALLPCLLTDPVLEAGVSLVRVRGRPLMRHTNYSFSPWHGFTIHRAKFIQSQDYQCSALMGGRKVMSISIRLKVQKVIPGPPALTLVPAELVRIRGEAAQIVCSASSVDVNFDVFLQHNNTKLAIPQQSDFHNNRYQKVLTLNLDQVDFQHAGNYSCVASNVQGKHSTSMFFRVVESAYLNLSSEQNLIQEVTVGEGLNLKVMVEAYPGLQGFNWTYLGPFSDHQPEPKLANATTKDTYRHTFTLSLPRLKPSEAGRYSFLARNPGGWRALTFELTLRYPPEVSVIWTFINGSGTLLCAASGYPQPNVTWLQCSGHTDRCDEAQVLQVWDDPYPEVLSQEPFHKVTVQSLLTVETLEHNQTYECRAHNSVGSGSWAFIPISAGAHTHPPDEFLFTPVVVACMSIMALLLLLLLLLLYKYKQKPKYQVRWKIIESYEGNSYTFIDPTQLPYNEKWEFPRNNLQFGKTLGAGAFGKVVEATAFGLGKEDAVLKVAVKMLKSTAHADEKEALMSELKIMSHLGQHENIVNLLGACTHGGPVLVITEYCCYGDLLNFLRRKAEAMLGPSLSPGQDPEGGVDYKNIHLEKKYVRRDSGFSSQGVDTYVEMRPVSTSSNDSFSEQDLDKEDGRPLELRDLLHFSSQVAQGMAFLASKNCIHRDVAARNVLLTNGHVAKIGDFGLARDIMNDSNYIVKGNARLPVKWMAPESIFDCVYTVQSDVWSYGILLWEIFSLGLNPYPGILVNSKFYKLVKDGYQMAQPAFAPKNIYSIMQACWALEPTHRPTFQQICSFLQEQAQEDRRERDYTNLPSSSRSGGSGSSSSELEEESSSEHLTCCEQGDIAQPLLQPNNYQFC
Chain of CHEK1 (O14757 whole entry): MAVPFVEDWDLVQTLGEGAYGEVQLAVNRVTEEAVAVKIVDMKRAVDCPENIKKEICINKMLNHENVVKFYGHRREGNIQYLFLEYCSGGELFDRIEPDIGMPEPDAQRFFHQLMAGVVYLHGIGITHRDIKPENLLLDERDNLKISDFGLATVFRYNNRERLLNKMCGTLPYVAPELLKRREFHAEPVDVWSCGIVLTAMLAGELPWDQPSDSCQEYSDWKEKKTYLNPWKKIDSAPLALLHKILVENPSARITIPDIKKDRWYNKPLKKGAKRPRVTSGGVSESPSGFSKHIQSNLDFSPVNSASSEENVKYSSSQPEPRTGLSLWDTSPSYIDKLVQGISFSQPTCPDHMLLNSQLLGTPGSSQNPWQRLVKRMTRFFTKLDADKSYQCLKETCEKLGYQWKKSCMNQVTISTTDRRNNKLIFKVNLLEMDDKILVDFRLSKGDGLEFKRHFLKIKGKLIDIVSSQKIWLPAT
Chain of AURKC (Q9UQB9 whole entry): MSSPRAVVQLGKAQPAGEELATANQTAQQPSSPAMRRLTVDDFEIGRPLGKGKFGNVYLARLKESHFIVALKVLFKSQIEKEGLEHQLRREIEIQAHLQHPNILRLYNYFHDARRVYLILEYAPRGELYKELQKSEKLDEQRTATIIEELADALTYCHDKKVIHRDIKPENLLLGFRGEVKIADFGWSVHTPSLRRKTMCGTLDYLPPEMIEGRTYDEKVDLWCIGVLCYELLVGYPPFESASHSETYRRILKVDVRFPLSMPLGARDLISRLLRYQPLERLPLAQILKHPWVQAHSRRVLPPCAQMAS
Chain of IRAK1 (P51617 whole entry): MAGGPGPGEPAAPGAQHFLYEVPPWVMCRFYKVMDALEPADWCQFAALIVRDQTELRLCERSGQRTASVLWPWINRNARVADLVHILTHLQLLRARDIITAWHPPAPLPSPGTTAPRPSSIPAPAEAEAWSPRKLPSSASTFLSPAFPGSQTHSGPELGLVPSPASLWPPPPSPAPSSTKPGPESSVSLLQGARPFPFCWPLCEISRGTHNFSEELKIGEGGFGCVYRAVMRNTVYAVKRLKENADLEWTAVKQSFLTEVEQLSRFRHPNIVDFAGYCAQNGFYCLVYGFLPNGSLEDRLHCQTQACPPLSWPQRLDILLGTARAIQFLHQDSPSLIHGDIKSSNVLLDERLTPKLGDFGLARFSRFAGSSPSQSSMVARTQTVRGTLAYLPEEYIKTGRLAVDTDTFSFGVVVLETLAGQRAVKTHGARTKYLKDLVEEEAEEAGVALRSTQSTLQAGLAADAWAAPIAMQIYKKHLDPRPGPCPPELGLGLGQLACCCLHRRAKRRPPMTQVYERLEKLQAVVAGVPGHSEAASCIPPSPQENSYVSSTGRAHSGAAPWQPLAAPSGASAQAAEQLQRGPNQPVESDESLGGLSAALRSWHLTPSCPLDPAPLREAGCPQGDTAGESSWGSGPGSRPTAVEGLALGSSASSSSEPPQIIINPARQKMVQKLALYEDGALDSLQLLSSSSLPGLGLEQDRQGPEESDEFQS
Chain of NLK (Q9UBE8 whole entry): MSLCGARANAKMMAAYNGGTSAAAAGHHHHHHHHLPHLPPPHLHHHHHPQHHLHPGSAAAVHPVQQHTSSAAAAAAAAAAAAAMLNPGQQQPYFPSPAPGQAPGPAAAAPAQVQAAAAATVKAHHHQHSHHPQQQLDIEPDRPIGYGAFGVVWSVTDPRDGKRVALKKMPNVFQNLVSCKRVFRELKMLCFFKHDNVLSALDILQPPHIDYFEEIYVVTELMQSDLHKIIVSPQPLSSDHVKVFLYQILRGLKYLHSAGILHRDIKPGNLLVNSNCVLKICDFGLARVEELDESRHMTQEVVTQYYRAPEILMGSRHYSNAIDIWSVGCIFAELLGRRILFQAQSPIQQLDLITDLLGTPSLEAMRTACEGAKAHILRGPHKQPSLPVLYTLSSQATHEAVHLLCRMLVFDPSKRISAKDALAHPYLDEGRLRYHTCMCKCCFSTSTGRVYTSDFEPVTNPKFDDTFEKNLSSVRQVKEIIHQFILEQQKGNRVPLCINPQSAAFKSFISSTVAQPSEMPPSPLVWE
Chain of DMPK (Q09013 whole entry): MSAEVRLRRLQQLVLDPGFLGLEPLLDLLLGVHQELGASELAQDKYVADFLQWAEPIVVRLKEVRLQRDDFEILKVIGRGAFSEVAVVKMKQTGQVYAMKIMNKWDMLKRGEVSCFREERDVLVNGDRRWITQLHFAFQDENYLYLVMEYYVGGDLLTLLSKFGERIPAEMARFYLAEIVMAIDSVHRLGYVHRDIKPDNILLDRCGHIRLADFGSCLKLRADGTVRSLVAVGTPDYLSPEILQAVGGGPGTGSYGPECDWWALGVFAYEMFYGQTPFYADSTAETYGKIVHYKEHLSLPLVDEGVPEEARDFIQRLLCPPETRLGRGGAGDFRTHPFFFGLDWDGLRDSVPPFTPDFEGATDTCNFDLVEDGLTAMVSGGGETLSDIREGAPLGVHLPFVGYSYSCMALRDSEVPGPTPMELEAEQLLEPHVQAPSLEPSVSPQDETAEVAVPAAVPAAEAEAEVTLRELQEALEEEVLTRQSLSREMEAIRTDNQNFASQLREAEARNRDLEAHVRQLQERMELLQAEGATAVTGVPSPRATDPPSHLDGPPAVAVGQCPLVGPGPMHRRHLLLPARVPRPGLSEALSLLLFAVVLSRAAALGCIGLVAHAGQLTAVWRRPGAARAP
Chain of MYLK4 (Q86YV6 whole entry): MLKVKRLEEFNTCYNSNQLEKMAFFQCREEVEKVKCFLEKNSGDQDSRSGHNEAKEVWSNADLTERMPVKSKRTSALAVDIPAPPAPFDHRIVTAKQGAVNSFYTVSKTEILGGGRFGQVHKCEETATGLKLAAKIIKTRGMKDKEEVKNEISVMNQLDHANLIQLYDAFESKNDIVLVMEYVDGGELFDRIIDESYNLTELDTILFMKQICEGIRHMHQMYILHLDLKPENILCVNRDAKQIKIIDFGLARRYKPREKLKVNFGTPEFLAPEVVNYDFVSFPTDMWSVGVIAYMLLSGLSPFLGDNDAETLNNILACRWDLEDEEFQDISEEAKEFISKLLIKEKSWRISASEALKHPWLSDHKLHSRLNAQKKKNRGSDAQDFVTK
Chain of STK38L (Q9Y2H1 whole entry): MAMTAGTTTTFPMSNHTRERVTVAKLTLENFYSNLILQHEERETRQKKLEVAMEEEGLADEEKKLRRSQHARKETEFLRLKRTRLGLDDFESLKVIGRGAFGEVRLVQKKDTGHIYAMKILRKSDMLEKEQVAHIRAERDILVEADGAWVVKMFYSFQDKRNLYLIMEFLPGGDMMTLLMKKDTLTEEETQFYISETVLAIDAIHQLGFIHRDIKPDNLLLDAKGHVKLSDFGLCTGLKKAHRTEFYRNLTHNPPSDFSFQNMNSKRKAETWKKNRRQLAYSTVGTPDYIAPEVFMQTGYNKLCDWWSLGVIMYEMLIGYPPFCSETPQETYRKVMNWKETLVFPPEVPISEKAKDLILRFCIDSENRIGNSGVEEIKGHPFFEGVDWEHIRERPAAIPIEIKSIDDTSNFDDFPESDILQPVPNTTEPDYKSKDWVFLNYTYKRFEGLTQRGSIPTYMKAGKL

Q: What does the source list for `Oc1ccc(C2=Cc3ccc(O)cc3OC2)cc1` [compound 1, idronoxil]?
A: remaining binding at 10 µM [1]: 100%; remaining binding at 10 µM [2]: 74%; remaining binding at 10 µM [3]: 80%; remaining binding at 10 µM [4]: 68%; remaining binding at 10 µM [5]: 49%; remaining binding at 10 µM [6]: 26%; remaining binding at 10 µM [7]: 88%; remaining binding at 10 µM [8]: 73%; remaining binding at 10 µM [9]: 85%; remaining binding at 10 µM [10]: 81%; remaining binding at 10 µM [11]: 61%; remaining binding at 10 µM [12]: 67%; remaining binding at 10 µM [13]: 94%; remaining binding at 10 µM [14]: 65%; remaining binding at 10 µM [15]: 26%; remaining binding at 10 µM [16]: 92%; remaining binding at 10 µM [17]: 92%; remaining binding at 10 µM [18]: 40%; remaining binding at 10 µM [19]: 67%; remaining binding at 10 µM [20]: 78%
